# Experimental data as given in US20250129370A1, “METHOD FOR REDUCING HEPATIC TRIGLYCERIDES” (ADAERATA, LIMITED PARTNERSHIP, priority 2022, published 2025).
# System: PCSK7 mRNA
# Assay: PCSK7 mRNA qPCR after miRNA overexpression in HEK293T cells
# Assay type: cell-based, human
# Details: 48 hours after transfection
# Protocol: RNA was isolated from the cells with the TRIzol™ Reagent (Invitrogen, USA) according to the manufacturer's instructions. The RNA samples were treated with RNase-free DNase I (Fermentas, USA) to eliminate any possible DNA contamination. Reverse transcription was performed using the PrimeScript™ First Strand cDNA Synthesis Kit (Takara, Japan) following the manufacturer's protocol. Briefly, one unit of the DNase I enzyme, 1 μL of a buffer, and 1 μg of total RNA were incubated for 30 minutes at 37° C. Then, 1 μL of 50 mM EDTA was added for enzyme inactivation and incubated at 65° C. for 10 minutes. Subsequently, 5 μL of DNase-treated RNA was added to the mix of 0.5 μL of the reverse-transcriptase enzyme, 2 μL of the reverse-transcriptase buffer, and 1 μL of a random hexamer and incubated for 15 minutes at 37° C., followed by 5 seconds at 85° C. for enzyme inactivation. Stem-loop RT-qPCR method was applied for evaluating the expression of miRNAs (Kramer, 2011). […]
# All the reactions were repeated in duplicates. Next, melt curves were analyzed, with the mean threshold cycles used for further analyses. The relative expressions of the miRNAs and PCSK7 to RNU48 small nuclear RNA and/or GAPDH and β2m were calculated, respectively, via the 2-ΔΔCt method. […]
substance,measurement,value
"miR-125a-5p: miRNA targeting PCSK7 3′-UTR and exons 14 and 15, overexpressed from pEGFP-C1 precursor vector (UCCCUGAGACCCUUUAACCUGUGA; miRNA expressed from a pEGFP-C1 precursor vector, further chemistry not given here)",reduction in PCSK7 mRNA levels,~25%
